Organism: Oryctolagus cuniculus
Assay: Vasorelaxant potency in isolated potassium (K(+)-depolarized rabbit thoracic aorta.
Type: functional
An IC50 of 300 nM was found for `CCOC(=O)C1=C(C)NC(SC)=NC1c1ccccc1[N+](=O)[O-]` (stereo not given) in this work. An IC50 of 180 nM was found for `CCCCCSC1=NC(c2cccc([N+](=O)[O-])c2)C(C(=O)OCC)=C(C)N1` (stereo not given) in this work. An IC50 of 130 nM was found for `CCOC(=O)C1=C(C)NC(SC)=NC1c1cccc([N+](=O)[O-])c1` (stereo not given) in this work. An IC50 of 6100 nM was found for `CCOC(=O)C1=C(C)NC(N(C)C)=NC1c1cccc([N+](=O)[O-])c1` (stereo not given) in this work. An IC50 of 1900 nM was found for `CSC1=NC(c2ccccc2[N+](=O)[O-])C(C(=O)OCCN(C)Cc2ccccc2)=C(C)N1` (stereo not given) in this work. An IC50 of 710 nM was found for `CCOC(=O)C1=C(C)N=C(OC)NC1c1cccc([N+](=O)[O-])c1` (stereo not given) in this work. An IC50 of 4 nM was found for `CCOC(=O)C1=C(C)NC(SCC)=C(C(=O)OCC)C1c1cccc([N+](=O)[O-])c1` (stereo not given) in this work. An IC50 of 9 nM was found for `CCC(C)OC(=O)C1=C(C)NC(SC)=NC1c1cccc([N+](=O)[O-])c1` (stereo not given) in this work. An IC50 of 190 nM was found for `CCOC(=O)C1=C(C)NC(SCc2ccccc2)=NC1c1cccc([N+](=O)[O-])c1` (stereo not given) in this work. An IC50 of 1200 nM was found for `CC1=C(C(=O)OC(C)C)C(c2cccc([N+](=O)[O-])c2)N=C(SCCN(C)C)N1` (stereo not given) in this work. An IC50 of 6 nM was found for `CSC1=NC(c2cccc(Cl)c2Cl)C(C(=O)OC(C)C)=C(C)N1` (stereo not given) in this work. An IC50 of 36 nM was found for `CCOC(=O)C1=C(C)NC(SC)=NC1c1ccccc1C(F)(F)F` (stereo not given) in this work. An IC50 of 16 nM was found for `CCOC(=O)C1=C(C)NC(SC)=NC1c1cccc(Cl)c1Cl` (stereo not given) in this work. An IC50 of 30 nM was found for `CSC1=NC(c2cccc([N+](=O)[O-])c2)C(C(=O)OCCN(C)Cc2ccccc2)=C(C)N1` (stereo not given) in this work. An IC50 of 280 nM was found for `COC(=O)C1=C(C)N=C(SC)NC1c1cccc([N+](=O)[O-])c1` (stereo not given) in this work. An IC50 of 7 nM was found for `CSC1=NC(c2cccc([N+](=O)[O-])c2)C(C(=O)OC(C)C)=C(C)N1` (stereo not given) in this work. An IC50 greater than 100000 nM was found for `CSC1=NC(c2ccccc2C(F)(F)F)C(C(=O)OCCN(C)Cc2ccccc2)=C(C)N1` (stereo not given) in this work. An IC50 of 300 nM was found for `C=CCSC1=NC(c2cccc([N+](=O)[O-])c2)C(C(=O)OCC)=C(C)N1` (stereo not given) in this work. An IC50 of 170 nM was found for `CCOC(=O)C1=C(C)NC(SCCN(C)Cc2ccccc2)=NC1c1cccc([N+](=O)[O-])c1` (stereo not given) in this work. An IC50 of 26 nM was found for `CCOC(=O)C1=C(C)NC(OCC)=C(C(=O)OCC)C1c1cccc([N+](=O)[O-])c1` (stereo not given) in this work.
